Results on 29 compounds are retold here after US9657015B2, “Substituted bicyclic dihydropyrimidinones and their use as inhibitors of neutrophil elastase activity” (Boehringer Ingelheim International GmbH, priority 2014, dated 2017).

In test [1] the target is Human neutrophil elastase (Homo sapiens (Human), UniProt P08246). Put plainly: Human Neutrophil Elastase Assay. It is filed as biochemical. The following applies: substrate MeOSuc-Ala-Ala-Pro-Val-AMC 250 μM, pH 7.5, room temperature.
Test [2] concerns the target neutrophil elastase in human plasma (Homo sapiens (Human), UniProt P08246). Put plainly: Neutrophil elastase inhibitory activity in human plasma. It is filed as biochemical. Particulars: human plasma assay (zymosan-stimulated blood plasma), substrate 250 μM, pH 7.5.
Method: Assay for the Determination of Neutrophil Elastase Inhibitory Activity in Human Plasma
Citrated blood from human healthy donors is mixed with zymosan suspension and incubated at room temperature. This leads to the stimulation of neutrophils and the release of neutrophil elastase into the plasma. The stimulated blood is centrifuged to generate the neutrophil elastase enriched plasma.
Preparation of Zymosan Working Solution:
Various concentrations of the neutrophil elastase inhibitor are incubated with plasma. […] A dose response curve is generated to calculate the EC50 of the inhibitor.

A value given as a limit tells only on which side of the number the result lay.

Chain of Human neutrophil elastase (P08246 30-247): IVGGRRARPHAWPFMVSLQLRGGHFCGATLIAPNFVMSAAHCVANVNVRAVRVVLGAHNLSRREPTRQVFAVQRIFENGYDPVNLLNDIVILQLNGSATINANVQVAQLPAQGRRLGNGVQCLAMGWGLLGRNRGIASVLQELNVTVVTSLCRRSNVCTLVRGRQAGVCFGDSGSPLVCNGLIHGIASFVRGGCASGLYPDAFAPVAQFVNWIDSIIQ
Chain of neutrophil elastase in human plasma (P08246 30-247): as above

As a reminder, the IC50 is the concentration needed to halve the response being measured. Read a low IC50 as higher potency. For the compound `CN1C(=O)N(c2cccc(C(F)F)c2)C2=C(C(=O)NCC2)[C@@H]1c1ccc(C#N)cc1` [Example 8B, (S)-4-(1-(3-(Difluoromethyl)phenyl)-3-methyl-2,5-dioxo-1,2,3,4,5,6,7,8-octahydropyrido[4,3-d]pyrimidin-4-yl)benzonitrile], the IC50 in test [1] was determined as 36 nM.
The same measure, in the same setting: to `CN1C(=O)N(c2cccc(C(F)(F)F)c2)C2=C(C(=O)NCC2)[C@@H]1c1ccc(C#N)cc1-c1cnco1` [Example 30B, 4-[(4S)-3-Methyl-2,5-dioxo-1-[3-(trifluoromethyl)phenyl]-1H,2H,3H,4H,5H,6H,7H,8H-pyrido[4,3-d]pyrimidin-4-yl]-3-(1,3-oxazol-5-yl)benzonitrile] belongs 12 nM.
For `N#Cc1ccc(C2NC(=O)N(c3cccc(C(F)(F)F)c3)C3=C2C(=O)NCC3)c(Br)c1` (centres unmarked) [Example 21, 3-Bromo-4-{2,5-dioxo-1-[3-(trifluoromethyl)phenyl]-1H,2H,3H,4H,5H,6H,7H,8H-pyrido[4,3-d]pyrimidin-4-yl}benzonitrile], the IC50 in test [2] and in test [1] was 1.9 nM in each case.
`N#Cc1ccc([C@@H]2NC(=O)N(c3cccc(C(F)F)c3)C3=C2C(=O)NCC3)cc1` [Example 2B, (S)-4-(1-(3-(Difluoromethyl)phenyl)-2,5-dioxo-1,2,3,4,5,6,7,8-octahydropyrido[4,3-d]-pyrimidin-4-yl)benzonitrile] came in with an IC50 in test [1] of more than 10000 nM.
`CN1CCC2=C(C1=O)[C@@H](c1ccc(C#N)cc1)N(C)C(=O)N2c1cccc(C(F)(F)F)c1` [Example 7, (R)-4-(3,6-Dimethyl-2,5-dioxo-1-(3-(trifluoromethyl)phenyl)-1,2,3,4,5,6,7,8-octahydropyrido[4,3-d]pyrimidin-4-yl)benzonitrile]: the IC50 turned out to be 2 nM in test [2] and 1.2 nM in test [1].
For `CN1C(=O)N(c2cccc(C(F)(F)F)c2)C2=C(C(=O)NCC2)C1c1ccc(C#N)cc1CO` (racemic) [Example 29, 3-(Hydroxymethyl)-4-{3-methyl-2,5-dioxo-1-[3-(trifluoromethyl)phenyl]-1H,2H,3H,4H,5H,6H,7H,8H-pyrido[4,3-d]pyrimidin-4-yl}benzonitrile] the same measures were less than 1 nM and less than 1 nM.
Turning to `CN1C(=O)N(c2cccc(C(F)(F)F)c2)C2=C(C(=O)NCC2)[C@@H]1c1ccc(C#N)cc1-c1cnn(C)c1` [Example 31B, 3-(1-Methyl-1H-pyrazol-4-yl)-4-[(4S)-3-methyl-2,5-dioxo-1-[3-(trifluoromethyl)-phenyl]-1H,2H,3H,4H,5H,6H,7H,8H-pyrido[4,3-d]pyrimidin-4-yl]benzonitrile], in test [1], the IC50 is 17 nM.
In the case of `CN1CCC2=C(C1=O)C(c1ccc(C#N)cc1)NC(=O)N2c1cccc(C(F)(F)F)c1` (racemic) [Example 4, 4-(6-Methyl-2,5-dioxo-1-(3-(trifluoromethyl)phenyl)-1,2,3,4,5,6,7,8-octahydropyrido[4,3-d]pyrimidin-4-yl)benzonitrile], the IC50 in test [2] was 2.9 nM; in test [1], 5.8 nM.
For `Cn1ncc2c1CN(C(=O)CN1C(=O)N(c3cccc(C(F)(F)F)c3)C3=C(C(=O)NCC3)C1c1ccc(C#N)cc1)C2` (centres unmarked) [Example 12.9] the same measures were 1 nM and less than 1 nM.
In the case of `COCCNC(=O)CN1C(=O)N(c2cccc(C(F)(F)F)c2)C2=C(C(=O)NCC2)C1c1ccc(C#N)cc1` (centres unmarked) [Example 12.4], the IC50 in test [2] turned out to be 5.1 nM; in test [1], 2 nM.
For `CN1C(=O)N(c2cccc(C(F)(F)F)c2)C2=C(C(=O)NCC2)C1c1ccc(C#N)cc1-c1ccncc1` (centres unmarked) [Example 33, 4-{3-Methyl-2,5-dioxo-1-[3-(trifluoromethyl)phenyl]-1H,2H,3H,4H,5H,6H,7H,8H-pyrido[4,3-d]pyrimidin-4-yl}-3-(pyridin-4-yl)benzonitrile] the same measures were 5.3 nM and less than 1 nM.
For `N#Cc1ccc(C2C3=C(CCNC3=O)N(c3cccc(C(F)(F)F)c3)C(=O)N2CC(=O)N2CCOCC2)cc1` (centres unmarked) [Example 12.7] the same measures were less than 1 nM and less than 1 nM.
For `CNC(=O)CN1C(=O)N(c2cccc(C(F)(F)F)c2)C2=C(C(=O)NCC2)[C@H]1c1ccc(C#N)cc1` [Example 12A, (R)-2-(4-(4-Cyanophenyl)-2,5-dioxo-1-(3-(trifluoromethyl)phenyl)-1,2,5,6,7,8-hexahydropyrido[4,3-d]pyrimidin-3(4H)-yl)-N-methylacetamide] the same measures were less than 1 nM and 1.3 nM.
As to `CN1C(=O)N(c2cccc(C(F)(F)F)c2)C2=C(C(=O)NCC2)C1c1ccc(C#N)cc1` (centres unmarked) [Example 5, 4-(3-Methyl-2,5-dioxo-1-(3-(trifluoromethyl)phenyl)-1,2,3,4,5,6,7,8-octahydropyrido-[4,3-d]pyrimidin-4-yl)benzonitrile], the results for the IC50 in test [2] and in test [1] were 1.1 nM and 1.9 nM, respectively.
`N#Cc1ccc(C2NC(=O)N(c3cccc(C(F)F)c3)C3=C2C(=O)NCC3)cc1` (racemic) [Example 2, 4-(1-(3-(Difluoromethyl)phenyl)-2,5-dioxo-1,2,3,4,5,6,7,8-octahydropyrido[4,3-d]-pyrimidin-4-yl)benzonitrile]: the results for the IC50 in test [2] and in test [1] were 8.2 nM and 6.9 nM, respectively.
For `N#Cc1ccc(C2C3=C(CCNC3=O)N(c3cccc(C(F)(F)F)c3)C(=O)N2CC(=O)N2CC3CC3C2)cc1` (centres unmarked) [Example 12.5] the same measures were less than 1 nM and less than 1 nM.
For `N#Cc1ccc(C2C3=C(CCNC3=O)N(c3cccc(C(F)(F)F)c3)C(=O)N2CC(=O)N2CCCCC2)cc1` (centres unmarked) [Example 12.6] the same measures were less than 1 nM and less than 1 nM.
For `CCNC(=O)N1CCC2=C(C1=O)C(c1ccc(C#N)cc1)NC(=O)N2c1cccc(C(F)(F)F)c1` (centres unmarked) [Example 19, 4-(4-Cyanophenyl)-N-ethyl-2,5-dioxo-1-[3-(trifluoromethyl)phenyl]-1H,2H,3H,4H,5H,6H,7H,8H-pyrido[4,3-d]pyrimidine-6-carboxamide] the same measures were 18 nM and 4.9 nM.
Turning to `N#Cc1ccc(C2C3=C(CCNC3=O)N(c3cccc(C(F)(F)F)c3)C(=O)N2CC(=O)NCCO)cc1` (centres unmarked) [Example 12.3], the IC50 was determined as 3.6 nM in test [2] and 2.1 nM in test [1].
For `N#Cc1ccc(C2NC(=O)N(c3cccc(C(F)(F)F)c3)C3=C2C(=O)N(C(=O)NCCCO)CC3)cc1` (centres unmarked) [Example 20, 4-(4-Cyanophenyl)-N-(3-hydroxypropyl)-2,5-dioxo-1-[3-(trifluoromethyl)phenyl]-1H,2H,3H,4H,5H,6H,7H,8H-pyrido[4,3-d]pyrimidine-6-carboxamide] the same measures were 6.9 nM and 3.7 nM.
In test [1], `CNC(=O)CN1C(=O)N(c2cccc(C(F)(F)F)c2)C2=C(C(=O)NCC2)[C@@H]1c1ccc(C#N)cc1` [Example 12B, (S)-2-(4-(4-Cyanophenyl)-2,5-dioxo-1-(3-(trifluoromethyl)phenyl)-1,2,5,6,7,8-hexahydropyrido[4,3-d]pyrimidin-3(4H)-yl)-N-methylacetamide] gave an IC50 of 1200 nM. That is a single-digit micromolar value.
With `CNC(=O)CN1C(=O)N(c2cccc(C(F)(F)F)c2)C2=C(C(=O)N(C)CC2)C1c1ccc(C#N)cc1` (centres unmarked) [Example 15, 2-(4-(4-Cyanophenyl)-6-methyl-2,5-dioxo-1-(3-(trifluoromethyl)phenyl)-1,2,5,6,7,8-hexahydropyrido[4,3-d]pyrimidin-3(4H)-yl)-N-methylacetamide], the IC50 was 7.8 nM in test [2] and 3.2 nM in test [1].
Regarding `CN1C(=O)N(c2cccc(C(F)(F)F)c2)C2=C(C(=O)NCC2)[C@@H]1c1ccc(C#N)cc1CO` [Example 32B, 3-(Hydroxymethyl)-4-[(4S)-3-methyl-2,5-dioxo-1-[3-(trifluoromethyl)phenyl]-1H,2H,3H,4H,5H,6H,7H,8H-pyrido[4,3-d]pyrimidin-4-yl]benzonitrile], the IC50 in test [1] amounted to 39 nM.
For the compound `CN1C(=O)N(c2cccc(C(F)(F)F)c2)C2=C(C(=O)NCC2)C1c1ccc(C#N)cc1-c1cnco1` (racemic) [Example 25, 4-{3-Methyl-2,5-dioxo-1-[3-(trifluoromethyl)phenyl]-1H,2H,3H,4H,5H,6H,7H,8H-pyrido[4,3-d]pyrimidin-4-yl}-3-(1,3-oxazol-5-yl)benzonitrile], the IC50 in test [2] is 1.5 nM; in test [1], less than 1 nM.
In the case of `CN1CCC2=C(C1=O)[C@H](c1ccc(C#N)cc1)NC(=O)N2c1cccc(C(F)(F)F)c1` [Example 4B, (S)-4-(6-Methyl-2,5-dioxo-1-(3-(trifluoromethyl)phenyl)-1,2,3,4,5,6,7,8-octahydropyrido[4,3-d]pyrimidin-4-yl)benzonitrile], in test [1], the IC50 was determined as 1900 nM.
On to `CN1C(=O)N(c2cccc(C(F)(F)F)c2)C2=C(C(=O)NCC2)C1c1ccc(C#N)cc1-c1cnn(C)c1` (racemic) [Example 26, 3-(1-Methyl-1H-pyrazol-4-yl)-4-{3-methyl-2,5-dioxo-1-[3-(trifluoromethyl)phenyl]-1H,2H,3H,4H,5H,6H,7H,8H-pyrido[4,3-d]pyrimidin-4-yl}benzonitrile], for which the IC50 in test [2] is 1.4 nM; in test [1], less than 1 nM.
Consider `CN(C)C(=O)CN1C(=O)N(c2cccc(C(F)(F)F)c2)C2=C(C(=O)N(C)CC2)C1c1ccc(C#N)cc1` (centres unmarked) [Example 15.1], for which the IC50 in test [2] is 2.6 nM; in test [1], less than 1 nM.
Turning to `CC1(C)CC2=C(C(=O)N1)C(c1ccc(C#N)cc1)NC(=O)N2c1cccc(C(F)(F)F)c1` (centres unmarked) [Example 3, 4-(7,7-Dimethyl-2,5-dioxo-1-(3-(trifluoromethyl)phenyl)-1,2,3,4,5,6,7,8-octahydropyrido[4,3-d]pyrimidin-4-yl)benzonitrile], the IC50 in test [2] came out at 13 nM; in test [1], 9.8 nM.
In test [1], `N#Cc1ccc([C@@H]2NC(=O)N(c3cccc(C(F)(F)F)c3)C3=C2C(=O)NCC3)cc1` [Example 1B, (S)-4-(2,5-Dioxo-1-(3-(trifluoromethyl)phenyl)-1,2,3,4,5,6,7,8-octahydropyrido[4,3-d]-pyrimidin-4-yl)benzonitrile] gave a 50% inhibitory concentration (IC50) of 940 nM.
